Key:
[1] = target: T1, Non-receptor tyrosine-protein kinase TNK1 (Homo sapiens) (UniProt Q13470); settings: at 10 µM
T1 sequence (whole entry): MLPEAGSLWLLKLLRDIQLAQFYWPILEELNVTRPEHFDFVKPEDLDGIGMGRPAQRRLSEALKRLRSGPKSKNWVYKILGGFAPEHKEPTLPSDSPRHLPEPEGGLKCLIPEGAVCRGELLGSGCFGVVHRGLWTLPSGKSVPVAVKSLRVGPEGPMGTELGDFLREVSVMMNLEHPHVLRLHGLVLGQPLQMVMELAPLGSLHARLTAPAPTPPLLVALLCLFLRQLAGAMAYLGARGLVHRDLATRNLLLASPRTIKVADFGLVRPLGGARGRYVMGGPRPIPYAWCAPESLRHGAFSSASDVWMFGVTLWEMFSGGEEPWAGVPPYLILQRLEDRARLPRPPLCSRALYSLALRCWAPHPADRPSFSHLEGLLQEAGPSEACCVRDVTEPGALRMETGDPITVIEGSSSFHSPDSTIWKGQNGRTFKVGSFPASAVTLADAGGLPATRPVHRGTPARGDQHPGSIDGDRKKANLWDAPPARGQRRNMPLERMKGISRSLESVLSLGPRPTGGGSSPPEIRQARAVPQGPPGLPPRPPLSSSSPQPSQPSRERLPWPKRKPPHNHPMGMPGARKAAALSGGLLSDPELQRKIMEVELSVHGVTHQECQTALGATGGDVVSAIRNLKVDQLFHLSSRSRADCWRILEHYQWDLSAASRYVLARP

[2] = target: T2, Serine/threonine-protein kinase RIO3 (Homo sapiens) (UniProt O14730); settings: at 10 µM
T2 sequence (whole entry): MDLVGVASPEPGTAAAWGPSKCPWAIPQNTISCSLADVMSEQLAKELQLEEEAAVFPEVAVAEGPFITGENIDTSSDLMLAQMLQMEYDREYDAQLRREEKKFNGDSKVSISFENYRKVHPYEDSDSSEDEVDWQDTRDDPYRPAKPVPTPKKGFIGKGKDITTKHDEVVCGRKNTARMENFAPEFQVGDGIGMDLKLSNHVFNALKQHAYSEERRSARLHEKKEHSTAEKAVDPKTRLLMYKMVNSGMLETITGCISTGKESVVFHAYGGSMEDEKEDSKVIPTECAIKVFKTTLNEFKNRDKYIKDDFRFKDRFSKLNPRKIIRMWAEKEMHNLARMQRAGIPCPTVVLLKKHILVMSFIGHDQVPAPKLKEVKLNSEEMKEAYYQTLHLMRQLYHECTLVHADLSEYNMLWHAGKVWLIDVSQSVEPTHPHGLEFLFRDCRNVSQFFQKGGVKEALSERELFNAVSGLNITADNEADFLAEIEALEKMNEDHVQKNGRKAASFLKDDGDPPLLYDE

[3] = target: BDNF/NT-3 growth factors receptor (Homo sapiens) (UniProt Q16620); experiment: Selectivity interaction (Millipore kinase profiler) EUB0000124b NTRK2; settings: at 10 µM
[4] = target: Protein polybromo-1 (Homo sapiens) (UniProt Q86U86); experiment: Selectivity interaction (Bromodomain panel (DSF asssay)) EUB0000270b PBRM1
Sequence of Protein polybromo-1 (Homo sapiens) (Q86U86 whole entry): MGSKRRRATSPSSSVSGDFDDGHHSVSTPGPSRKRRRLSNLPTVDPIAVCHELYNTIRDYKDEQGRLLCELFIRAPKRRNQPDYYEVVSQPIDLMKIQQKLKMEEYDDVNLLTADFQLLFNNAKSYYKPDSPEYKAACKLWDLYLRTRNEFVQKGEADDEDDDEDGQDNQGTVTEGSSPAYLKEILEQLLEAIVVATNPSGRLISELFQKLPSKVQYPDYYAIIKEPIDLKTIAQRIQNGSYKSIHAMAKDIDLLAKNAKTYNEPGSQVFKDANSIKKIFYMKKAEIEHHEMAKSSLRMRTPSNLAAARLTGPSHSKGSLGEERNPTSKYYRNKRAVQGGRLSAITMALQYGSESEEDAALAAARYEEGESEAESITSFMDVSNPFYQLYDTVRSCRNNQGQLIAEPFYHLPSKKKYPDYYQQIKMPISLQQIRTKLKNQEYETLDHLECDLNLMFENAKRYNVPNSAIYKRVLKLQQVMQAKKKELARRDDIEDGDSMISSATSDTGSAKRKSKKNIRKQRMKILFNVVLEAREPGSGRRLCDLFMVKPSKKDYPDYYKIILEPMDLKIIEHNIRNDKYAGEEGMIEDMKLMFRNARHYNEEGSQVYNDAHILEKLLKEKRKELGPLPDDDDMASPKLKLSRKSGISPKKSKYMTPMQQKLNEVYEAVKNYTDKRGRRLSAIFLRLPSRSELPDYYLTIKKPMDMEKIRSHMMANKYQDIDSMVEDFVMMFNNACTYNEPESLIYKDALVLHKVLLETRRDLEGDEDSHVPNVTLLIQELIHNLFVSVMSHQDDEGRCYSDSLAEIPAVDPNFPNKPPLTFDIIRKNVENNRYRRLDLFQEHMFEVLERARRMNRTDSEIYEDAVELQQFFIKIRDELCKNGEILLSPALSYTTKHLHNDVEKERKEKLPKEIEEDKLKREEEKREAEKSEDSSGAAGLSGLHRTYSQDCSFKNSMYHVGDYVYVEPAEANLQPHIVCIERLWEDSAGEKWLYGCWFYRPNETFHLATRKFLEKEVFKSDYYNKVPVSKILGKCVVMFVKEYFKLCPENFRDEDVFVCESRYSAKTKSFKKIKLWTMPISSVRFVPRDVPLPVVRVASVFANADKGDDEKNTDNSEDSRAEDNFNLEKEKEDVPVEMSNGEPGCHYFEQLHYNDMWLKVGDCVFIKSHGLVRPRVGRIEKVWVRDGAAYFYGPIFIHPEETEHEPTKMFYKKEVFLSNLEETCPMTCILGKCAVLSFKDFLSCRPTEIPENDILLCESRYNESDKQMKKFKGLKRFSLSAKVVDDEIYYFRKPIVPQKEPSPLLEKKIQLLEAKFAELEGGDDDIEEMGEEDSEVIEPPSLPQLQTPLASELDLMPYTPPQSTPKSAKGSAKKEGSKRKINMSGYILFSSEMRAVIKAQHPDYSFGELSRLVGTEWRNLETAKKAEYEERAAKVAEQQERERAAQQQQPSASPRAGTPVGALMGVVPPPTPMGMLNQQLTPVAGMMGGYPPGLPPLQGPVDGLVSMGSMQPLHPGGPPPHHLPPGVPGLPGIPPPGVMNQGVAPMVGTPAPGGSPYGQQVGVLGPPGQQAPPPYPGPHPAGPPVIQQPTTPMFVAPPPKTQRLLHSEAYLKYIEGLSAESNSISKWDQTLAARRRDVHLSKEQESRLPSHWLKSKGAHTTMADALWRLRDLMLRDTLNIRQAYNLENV

[5] = target: Adenosine receptor A3 (Homo sapiens) (UniProt P0DMS8); experiment: Selectivity interaction (Eurofins CEREP Diversity Profile (receptors and ion channels)) EUB0000279b ADORA3; settings: at 10 µM
Sequence of Adenosine receptor A3 (Homo sapiens) (P0DMS8 whole entry): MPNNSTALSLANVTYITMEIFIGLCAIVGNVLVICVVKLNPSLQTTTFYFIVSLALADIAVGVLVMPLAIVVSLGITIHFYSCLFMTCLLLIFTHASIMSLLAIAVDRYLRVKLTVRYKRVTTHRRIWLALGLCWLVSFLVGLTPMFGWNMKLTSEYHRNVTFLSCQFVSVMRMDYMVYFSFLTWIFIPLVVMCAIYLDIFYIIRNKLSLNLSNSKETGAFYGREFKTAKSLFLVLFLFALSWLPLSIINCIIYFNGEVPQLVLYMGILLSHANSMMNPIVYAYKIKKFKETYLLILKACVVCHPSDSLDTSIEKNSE

[6] = target: Acetylcholinesterase (Homo sapiens) (UniProt P22303); experiment: Selectivity interaction (Panel of non-epigenetic targets (kinases, GPCRs, ion channels, and transporters, Eurofins) ) EUB0000271b ACHE; settings: at 1 µM
Sequence of Acetylcholinesterase (Homo sapiens) (P22303 whole entry): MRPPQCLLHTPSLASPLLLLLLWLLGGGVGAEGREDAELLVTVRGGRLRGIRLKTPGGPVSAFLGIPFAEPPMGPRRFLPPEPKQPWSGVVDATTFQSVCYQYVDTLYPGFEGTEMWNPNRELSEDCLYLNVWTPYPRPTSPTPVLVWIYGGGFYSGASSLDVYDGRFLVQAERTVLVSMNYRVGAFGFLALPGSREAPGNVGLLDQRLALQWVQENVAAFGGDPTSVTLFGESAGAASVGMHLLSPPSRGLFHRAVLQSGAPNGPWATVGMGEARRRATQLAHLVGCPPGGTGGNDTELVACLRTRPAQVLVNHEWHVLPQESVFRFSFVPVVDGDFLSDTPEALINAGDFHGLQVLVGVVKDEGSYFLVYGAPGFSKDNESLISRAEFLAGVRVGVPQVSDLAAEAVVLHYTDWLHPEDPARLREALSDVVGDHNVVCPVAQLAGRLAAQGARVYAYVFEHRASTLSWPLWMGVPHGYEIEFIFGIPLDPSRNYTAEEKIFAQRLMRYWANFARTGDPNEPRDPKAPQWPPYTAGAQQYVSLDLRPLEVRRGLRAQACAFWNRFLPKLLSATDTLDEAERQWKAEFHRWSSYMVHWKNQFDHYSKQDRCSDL

[7] = target: T3, Serine/threonine-protein kinase N2 (Homo sapiens, UniProt Q16513); settings: at 10 µM
T3 sequence (Q16513 whole entry, looked up): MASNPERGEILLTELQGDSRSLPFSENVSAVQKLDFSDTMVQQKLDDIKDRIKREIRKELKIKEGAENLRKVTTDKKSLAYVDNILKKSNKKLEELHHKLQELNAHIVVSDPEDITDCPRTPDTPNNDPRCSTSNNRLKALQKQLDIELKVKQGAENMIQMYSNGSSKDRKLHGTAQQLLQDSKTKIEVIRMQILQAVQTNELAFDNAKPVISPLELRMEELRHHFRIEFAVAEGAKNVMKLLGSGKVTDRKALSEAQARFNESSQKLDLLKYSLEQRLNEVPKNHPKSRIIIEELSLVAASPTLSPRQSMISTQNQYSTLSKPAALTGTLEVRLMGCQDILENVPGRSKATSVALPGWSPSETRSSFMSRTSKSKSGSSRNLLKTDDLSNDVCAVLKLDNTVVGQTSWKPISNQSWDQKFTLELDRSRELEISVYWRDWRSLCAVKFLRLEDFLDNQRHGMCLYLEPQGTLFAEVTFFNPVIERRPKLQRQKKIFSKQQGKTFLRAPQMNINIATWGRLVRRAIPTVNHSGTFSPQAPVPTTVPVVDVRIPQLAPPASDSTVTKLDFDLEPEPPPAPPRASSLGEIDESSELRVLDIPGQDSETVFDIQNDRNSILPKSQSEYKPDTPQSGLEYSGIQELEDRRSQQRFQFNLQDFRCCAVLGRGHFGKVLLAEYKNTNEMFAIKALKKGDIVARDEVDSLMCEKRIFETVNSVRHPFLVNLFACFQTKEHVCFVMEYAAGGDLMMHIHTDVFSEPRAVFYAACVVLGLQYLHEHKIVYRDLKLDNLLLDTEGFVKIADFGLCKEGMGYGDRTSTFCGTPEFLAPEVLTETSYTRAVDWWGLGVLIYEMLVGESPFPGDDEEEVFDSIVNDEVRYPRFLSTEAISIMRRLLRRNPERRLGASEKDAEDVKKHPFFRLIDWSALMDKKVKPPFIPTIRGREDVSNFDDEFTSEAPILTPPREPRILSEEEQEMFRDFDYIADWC

[8] = target: Ribosomal protein S6 kinase alpha-2 (Homo sapiens) (UniProt Q15349); experiment: Selectivity interaction (KinomeScan (DiscoverX)) EUB0001079a RPS6KA2; settings: at 1 µM
Sequence of Ribosomal protein S6 kinase alpha-2 (Homo sapiens) (Q15349 whole entry): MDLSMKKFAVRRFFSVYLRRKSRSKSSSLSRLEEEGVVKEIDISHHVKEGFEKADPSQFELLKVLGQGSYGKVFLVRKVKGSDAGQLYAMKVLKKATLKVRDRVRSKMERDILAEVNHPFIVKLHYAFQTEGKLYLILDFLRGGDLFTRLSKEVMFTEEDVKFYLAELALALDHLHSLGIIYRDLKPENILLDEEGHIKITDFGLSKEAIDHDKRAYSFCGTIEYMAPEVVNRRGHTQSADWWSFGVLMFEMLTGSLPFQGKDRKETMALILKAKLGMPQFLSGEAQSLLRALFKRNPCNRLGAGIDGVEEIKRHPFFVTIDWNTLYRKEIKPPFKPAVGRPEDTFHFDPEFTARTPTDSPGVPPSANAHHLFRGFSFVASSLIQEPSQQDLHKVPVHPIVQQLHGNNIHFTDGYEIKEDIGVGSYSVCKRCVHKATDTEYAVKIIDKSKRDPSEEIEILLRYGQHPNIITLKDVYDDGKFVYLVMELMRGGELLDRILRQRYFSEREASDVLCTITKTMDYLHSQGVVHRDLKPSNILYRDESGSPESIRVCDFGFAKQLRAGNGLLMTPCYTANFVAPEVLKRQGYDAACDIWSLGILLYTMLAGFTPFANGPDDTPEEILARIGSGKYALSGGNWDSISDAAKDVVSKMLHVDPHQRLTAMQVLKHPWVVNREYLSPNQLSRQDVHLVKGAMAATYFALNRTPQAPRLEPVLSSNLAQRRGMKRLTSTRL

[9] = target: Serine/threonine-protein kinase NIM1 (Homo sapiens, UniProt Q8IY84); experiment: Selectivity interaction (KinomeScan (DiscoverX)) EUB0001079a NIM1K; settings: at 1 µM
Sequence of Serine/threonine-protein kinase NIM1 (Q8IY84 whole entry): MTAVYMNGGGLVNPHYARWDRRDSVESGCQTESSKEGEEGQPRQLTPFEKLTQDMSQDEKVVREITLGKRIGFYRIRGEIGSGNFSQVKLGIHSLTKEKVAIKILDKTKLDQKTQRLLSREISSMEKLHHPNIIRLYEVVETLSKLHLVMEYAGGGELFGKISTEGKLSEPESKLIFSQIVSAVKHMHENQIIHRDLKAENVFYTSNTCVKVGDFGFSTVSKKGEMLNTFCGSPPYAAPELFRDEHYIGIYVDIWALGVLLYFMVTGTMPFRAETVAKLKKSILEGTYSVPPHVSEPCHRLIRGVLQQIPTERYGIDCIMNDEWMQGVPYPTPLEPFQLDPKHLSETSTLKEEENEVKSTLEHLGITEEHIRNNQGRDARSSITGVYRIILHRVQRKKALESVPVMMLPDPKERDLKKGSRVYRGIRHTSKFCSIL

[10] = target: T4, Dual specificity mitogen-activated protein kinase kinase 3 (Homo sapiens) (UniProt P46734); experiment: Selectivity interaction (KinomeScan (DiscoverX)) EUB0001619a MAP2K3; settings: at 1 µM
T4 sequence (whole entry): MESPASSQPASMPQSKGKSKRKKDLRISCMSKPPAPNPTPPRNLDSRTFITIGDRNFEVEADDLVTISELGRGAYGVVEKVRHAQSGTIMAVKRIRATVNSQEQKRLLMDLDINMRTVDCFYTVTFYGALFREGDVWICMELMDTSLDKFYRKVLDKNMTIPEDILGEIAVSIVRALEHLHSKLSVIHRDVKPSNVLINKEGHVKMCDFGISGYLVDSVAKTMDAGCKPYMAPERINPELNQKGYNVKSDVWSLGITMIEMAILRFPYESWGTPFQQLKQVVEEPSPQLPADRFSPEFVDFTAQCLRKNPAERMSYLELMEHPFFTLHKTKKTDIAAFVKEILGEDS

[11] = target: T3, Serine/threonine-protein kinase N2; experiment: Selectivity interaction (KinomeScan (DiscoverX)) EUB0000666a PKN2; settings: at 10 µM

`Cc1cc([C@@H](C)Nc2ccccc2C(=O)O)c2nc(N3CCOCC3)cc(=O)n2c1` [AZD-6482] was tested, and the % of control [1] was 100% and the % of control [2] was 100%.

Compound `CC(=O)Nc1cccc(-n2c(=O)n(C3CC3)c(=O)c3c(Nc4ccc(I)cc4F)n(C)c(=O)c(C)c32)c1` has a % of control [3] of 120%.

For `Cc1cc(CN)cc(C)c1-c1ncn(C)c1-c1cncn1C`, the dTM [4] was -0.44 K.

With `CC(=O)c1cc(-c2ccccc2OCC2CC2)c2ncccn12` the % of control [5] was 23%.

For `Cc1cc(C)cc([C@@H]2c3cc(C)ccc3NC(=O)CN2C(=O)c2ccc(Br)s2)c1`, the % of inhibition [6] was 7%.

With `COCC(=O)NC/C=C/c1ccc2ncnc(Nc3ccc(Oc4ccc(C)nc4)c(C)c3)c2c1` [CP-724714] the % of control [7] was 99%.

With `Nc1cnc(N2CCc3cc(S(=O)(=O)Nc4c(F)cc(Cl)cc4F)cc(N4CCCC4=O)c32)nc1` [TP-020n] the % of control [8] was 88% and the % of control [9] was 100%.

Work on `N#Cc1cccc(-c2c[nH]c3ncnc(N4CCOCC4)c23)c1` yielded a % of control [10] of 71%.

Work on `O=C(NOC[C@H](O)CO)c1ccc(F)c(F)c1Nc1ccc(I)cc1F` yielded a % of control [11] of 100%.
